{
  "source": "patent US20020187126A1",
  "about": "“Methods for viral oncoapoptosis in cancer therapy” (priority 2001, published 2002)",
  "key": {"293 cells": {"system": "293 cells", "experiment": "Immunoblots for PARP, caspase-3 and p53 in infected or treated 293 cells", "format": "cell-based, human", "description": "Cells and viruses. All cells were maintained in Dulbecco's modified Eagle's medium (DMEM) containing 5% fetal bovine serum. […]\nExtraction of cells and denaturing gel electrophoresis. Whole extracts of cells were obtained as previously described (Aubert and Blaho, J Virol. 1999, 73:2803-2813; Aubert et al., J. Virol. 1999, 73:10359-70) Protein concentrations were measured using a modified Bradford assay (Biorad) as recommended by the vendor. […]\nThe results above indicate that cells whose p53 is undermodified are susceptible to apoptosis triggered by rdHSV-1 while those which accumulate phosphorylated p53 are resistant. To confirm the prediction that the amount of phosphorylated p53 present in a given cell is an accurate indicator of whether the cell will be killed by an rdHSV-1, 293 cells were analyzed. […]"}, "primary MEF cells": {"system": "primary MEF cells", "experiment": "Phase-contrast microscopy and Hoechst staining of infected or treated MEF cells", "format": "cell-based, mouse", "conditions": "Hoechst dye, 15 h", "excerpt": "Cells and viruses. All cells were maintained in Dulbecco's modified Eagle's medium (DMEM) containing 5% fetal bovine serum. Human larynx epidermoid carcinoma HEp-2 (Moore, Cancer Res.1955, 15:598-605), epithelial cervical carcinoma HeLa S3 (Puck, et al, J. Exp. Med.1956, 103:273-284, osteosarcoma 143B (Post and Roizman, Cell 1981, 25:227-32), and African green monkey kidney Vero (Yasumura and Kawakita, Nippon Rinsho 1963, 21:1209) cells were obtained from the American Type Culture Collection (Rockville, Md. V2.2 is a derivative Vero cell line, which carries a stably integrated copy of the ICP27 gene (Rice and Knipe, J Virol. 1990, 64:1704-15). Adenovirus type 5 transformed human primary embryonal kidney 293 (Graham et al., J Gen Virol. 1977, 36:59-74) and SV40 T antigen expressing 293T cells were obtained from the ATCC. […]\nTo assess whether rdHSV-1 triggers apoptosis in infected MEF, cell morphologies were documented by phase-contrast microscopy and condensed nuclei were visualized following staining with a fluorescent Hoechst dye. […] Cells were analyzed 15 h post-infection. […] Few, if any, cells with condensed nuclei were detected following infection with either rdHSV-1 strain. […]"}, "[1]": {"system": "primary human foreskin fibroblast (HFF) cells", "experiment": "Hoechst staining, fluorescence and phase-contrast microscopy of HFF cells", "format": "cell-based", "conditions": "Hoechst DNA dye", "description": "(§1) Biochemical induction of apoptosis. Cell apoptosis was induced by the addition of staurosporine (Calbiochem, San Diego, Calif.) to the medium at a final concentration of either 1 or 2 μM. Cells were maintained in the presence of staurosporine for 24 h. TNF (Sigma) was added directly to medium at a final concentration of 10 ng/ml in combination with cycloheximide (Sigma) at a final concentration of 10 μg/ml for 24 h.\nMicroscopic analyses and computer graphics. Infected cell phenotypes were documented by phase-contrast light microscopy using an Olympus CK2/PM-10AK3 system with an attached 35 mm camera. For analyses of chromatin condensation, cells were grown and infected (as described above) in a 35-mm plate. At 24 hours post infection, the cells were incubated with the DNA dye Hoechst 33258 (Sigma) at a final concentration of 5 μg/ml in PBS for 15 minutes at 37° C. […]\nThe transformed cell lines we analyzed above were of human origin. […] We assessed the p53 status, the susceptibility of rdHSV-1 infection, and the ability to undergo apoptosis of primary human foreskin fibroblast (HFF) cells by immunoblotting, Hoechst staining, and DNA laddering assays. […] Finally, we stained the infected and treated HFF cells with Hoechst DNA dye and visualized cellular and nuclear morphologies by fluorescence and phase-contrast microscopy. […]"}, "[2]": {"system": "primary human foreskin fibroblast (HFF) cells", "experiment": "DNA laddering by ethidium bromide staining in HFF cells", "format": "cell-based", "conditions": "low molecular weight DNA", "description": "as §1\nDNA laddering by ethidium bromide staining. Low molecular weight DNA was isolated from cells as described (Koyama and Miwa, J. Virol. 1997, 71:2567; Aubert and Blaho, J. Virol. 1999, 73:2803). The DNA samples were subjected to electropheresis in a horizontal 1.5% agarose gel, followed by staining with 10 μg/ml ethidium bromide. DNA was visualilzed by UV light transillumination and photographed with Polaroid 67 film.\nThe transformed cell lines we analyzed above were of human origin. Thus, it was necessary to confirm our MEF cell results using a primary human cell line. We assessed the p53 status, the susceptibility of rdHSV-1 infection, and the ability to undergo apoptosis of primary human foreskin fibroblast (HFF) cells by immunoblotting, Hoechst staining, and DNA laddering assays. […] Finally, we stained the infected and treated HFF cells with Hoechst DNA dye and visualized cellular and nuclear morphologies by fluorescence and phase-contrast microscopy. […]"}},
  "data": [
    {"smiles": "CN[C@@H]1C[C@H]2O[C@@](C)([C@@H]1OC)n1c3ccccc3c3c4c(c5c6ccccc6n2c5c31)C(=O)NC4", "note": "[staurosporine]", "values": [
      {"measurement": "signs of apoptosis (PARP processing)", "setting": "293 cells; environmental stimulators, double dose of STS", "value": "no signs of apoptosis were detected"},
      {"measurement": "apoptosis (PARP and caspase-3 processing)", "setting": "293 cells; presence or absence of CHX", "value": "did not undergo apoptosis"},
      {"measurement": "cells with condensed nuclei / chromatin", "setting": "primary MEF cells", "value": "significant number of small apoptotic cells which contained condensed chromatin"},
      {"measurement": "condensed chromatin / features of apoptosis", "setting": "[1]", "value": "showed features indicative of apoptosis"},
      {"measurement": "DNA laddering / fragmentation", "setting": "[2]", "value": "DNA fragmentation that migrated as a smear"}
    ]}
  ]
}
